For one assay, the target named is CDK2/cyclin A (Homo sapiens, UniProt P24941). As to the kind of experiment: Kinase assay, radioactive phosphate incorporation, CDK2/cyclin A. It is filed as biochemical. Conditions: 100 μM ATP, 30° C.; read-out: Kinase inhibition IC50 CDK2/cyclin A. An outline of the steps: (§1)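 Inhibition is measured as reduced transfer of radioactive phosphate to a polypeptide substrate by 2-4 μg of recombinant enzyme. Mixtures with Mg/ATP (100 μM ATP, 15 mM MgCl2, [γ-32P]-ATP) in pH 7.4 MOPS-based buffer incubate at 30° C, are stopped on ice, filtered and counted.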

In a further assay the target is CDK2/cyclin E (Homo sapiens, UniProt P24941). As to the kind of experiment: Kinase assay, radioactive phosphate incorporation, CDK2/cyclin E. The assay is classed as biochemical. Conditions: 100 μM ATP, 30° C.; read-out: Kinase inhibition IC50 CDK2/cyclin E. An outline of the steps: as §1
In the next assay the target is CDK4/cyclin D1 (Homo sapiens, UniProt P11802). As to the kind of experiment: Kinase assay, radioactive phosphate incorporation, CDK4/cyclin D1. The assay is classed as biochemical. The settings on record: 100 μM ATP, 30° C.; read-out: Kinase inhibition IC50 CDK4/cyclin D1. In outline: as §1
Chain of CDK4/cyclin D1 (P11802 whole entry, species assumed): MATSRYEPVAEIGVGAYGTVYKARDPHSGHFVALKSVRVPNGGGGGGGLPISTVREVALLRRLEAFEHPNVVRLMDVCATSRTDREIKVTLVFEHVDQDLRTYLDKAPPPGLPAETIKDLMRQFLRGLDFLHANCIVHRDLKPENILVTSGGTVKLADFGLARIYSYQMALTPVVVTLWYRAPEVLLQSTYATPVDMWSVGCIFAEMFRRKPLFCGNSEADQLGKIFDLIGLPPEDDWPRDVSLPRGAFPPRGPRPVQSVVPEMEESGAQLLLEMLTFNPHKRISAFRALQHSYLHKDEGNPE
Chain of CDK4/cyclin D1 (P24385 whole entry partner, species assumed): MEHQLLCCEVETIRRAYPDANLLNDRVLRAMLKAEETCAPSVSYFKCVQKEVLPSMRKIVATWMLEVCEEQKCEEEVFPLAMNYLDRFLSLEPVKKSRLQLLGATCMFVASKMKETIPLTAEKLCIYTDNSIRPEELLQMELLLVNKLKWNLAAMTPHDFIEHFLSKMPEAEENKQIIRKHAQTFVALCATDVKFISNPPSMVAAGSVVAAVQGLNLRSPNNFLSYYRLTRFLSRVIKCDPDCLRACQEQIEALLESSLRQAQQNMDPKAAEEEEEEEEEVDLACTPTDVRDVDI
The next assay concerns the target CDK7/cyclin H (Homo sapiens, UniProt P50613). As to the kind of experiment: Kinase assay, radioactive phosphate incorporation, CDK7/cyclin H. The assay is classed as biochemical. The settings on record: 100 μM ATP, 30° C.; read-out: Kinase inhibition IC50 CDK7/cyclin H. An outline of the steps: as §1
The target of the next assay is CDK9/cyclin T1 (Homo sapiens, UniProt P50750). As to the kind of experiment: Kinase assay, radioactive phosphate incorporation, CDK9/cyclin T1. It is filed as biochemical. The settings on record: 100 μM ATP, 30° C.; read-out: Kinase inhibition IC50 CDK9/cyclin T1. An outline of the steps: as §1
Chain of CDK9/cyclin T1 (P50750 whole entry, species assumed): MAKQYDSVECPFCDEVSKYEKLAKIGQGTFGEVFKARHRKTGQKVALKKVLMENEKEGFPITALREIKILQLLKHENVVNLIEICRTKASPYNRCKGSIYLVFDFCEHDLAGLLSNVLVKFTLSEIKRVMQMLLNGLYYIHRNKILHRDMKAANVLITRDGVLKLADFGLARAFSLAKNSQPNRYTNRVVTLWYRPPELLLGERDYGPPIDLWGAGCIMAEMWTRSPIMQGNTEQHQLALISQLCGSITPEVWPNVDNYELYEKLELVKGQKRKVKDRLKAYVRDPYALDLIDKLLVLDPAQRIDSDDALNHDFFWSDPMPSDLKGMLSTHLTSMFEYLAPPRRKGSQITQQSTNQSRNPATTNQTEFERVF
Chain of CDK9/cyclin T1 (O60563 whole entry partner, species assumed): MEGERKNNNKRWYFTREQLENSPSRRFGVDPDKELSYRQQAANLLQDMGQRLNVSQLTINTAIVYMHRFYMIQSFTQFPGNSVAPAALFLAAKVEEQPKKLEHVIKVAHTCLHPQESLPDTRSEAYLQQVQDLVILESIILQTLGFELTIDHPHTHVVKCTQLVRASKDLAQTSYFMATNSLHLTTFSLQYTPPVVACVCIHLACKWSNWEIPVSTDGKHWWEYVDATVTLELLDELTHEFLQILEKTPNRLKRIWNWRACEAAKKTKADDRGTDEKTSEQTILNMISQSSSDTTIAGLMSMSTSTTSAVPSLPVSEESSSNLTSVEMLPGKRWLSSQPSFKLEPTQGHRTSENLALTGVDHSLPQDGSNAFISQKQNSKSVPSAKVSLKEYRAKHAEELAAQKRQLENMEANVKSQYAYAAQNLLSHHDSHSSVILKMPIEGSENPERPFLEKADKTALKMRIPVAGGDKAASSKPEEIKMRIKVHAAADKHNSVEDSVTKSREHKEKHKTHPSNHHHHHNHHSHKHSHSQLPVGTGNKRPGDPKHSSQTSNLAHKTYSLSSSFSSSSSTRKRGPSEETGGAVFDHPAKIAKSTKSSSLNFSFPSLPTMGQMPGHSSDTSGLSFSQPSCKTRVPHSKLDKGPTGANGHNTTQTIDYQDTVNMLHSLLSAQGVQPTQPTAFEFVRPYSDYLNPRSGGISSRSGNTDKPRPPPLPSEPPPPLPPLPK
For the next assay, the target named is GSK3β (Homo sapiens, UniProt P49841). As to the kind of experiment: Kinase assay, radioactive phosphate incorporation, GSK3β. The assay is classed as biochemical. Conditions: 100 μM ATP, 30° C.; read-out: Kinase inhibition IC50 GSK3β. In outline:
as §1

In the next assay the target is T1, Aurora-A (Homo sapiens, UniProt O14965).
T1 sequence (O14965 1-403): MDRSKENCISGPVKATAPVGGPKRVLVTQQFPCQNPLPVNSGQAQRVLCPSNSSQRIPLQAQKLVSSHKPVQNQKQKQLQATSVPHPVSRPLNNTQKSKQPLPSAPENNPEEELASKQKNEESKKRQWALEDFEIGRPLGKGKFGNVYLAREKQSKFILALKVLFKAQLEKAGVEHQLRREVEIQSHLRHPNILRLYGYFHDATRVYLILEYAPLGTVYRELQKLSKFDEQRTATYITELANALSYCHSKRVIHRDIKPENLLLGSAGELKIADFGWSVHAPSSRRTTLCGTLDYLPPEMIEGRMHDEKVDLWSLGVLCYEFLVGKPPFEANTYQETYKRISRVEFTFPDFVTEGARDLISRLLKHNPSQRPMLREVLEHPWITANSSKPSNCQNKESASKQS
As to the kind of experiment: Kinase assay, radioactive phosphate incorporation, Aurora-A. It is filed as biochemical. Conditions: 100 μM ATP, 30° C.; read-out: Kinase inhibition IC50 Aurora-A. As for the experimental part: (§2) The compounds from the examples above were investigated for their ability to inhibit the enzymatic activity of various protein kinases. This was achieved by measurement of incorporation of radioactive phosphate from ATP into appropriate polypeptide substrates. Recombinant protein kinases and kinase complexes were produced or obtained commercially. Assays were performed using 96-well plates and appropriate assay buffers (typically 25 mM β-glycerophosphate, 20 mM MOPS, 5 MM EGTA, 1 mM DTT, 1 mM Na3VO3, pH 7.4), into which were added 2-4 μg of active enzyme with appropriate substrates. The reactions were initiated by addition of Mg/ATP mix (15 mM MgCl2+100 μM ATP with 30-50 kBq per well of [γ-^32P]-ATP) and mixtures incubated as required at 30° C. Reactions were stopped on ice, followed by filtration through p81 filterplates or GF/C filterplates (Whatman Polyfiltronics, Kent, UK). After washing 3 times with 75 mM aq orthophosphoric acid, plates were dried, scintillant added and incorporated radioactivity measured in a scintillation counter (TopCount, Packard Instruments, Pangbourne, Berks, UK). Compounds for kinase assay were made up as 10 mM stocks in DMSO and diluted into 10% DMSO in assay buffer.

In the next assay the test system is A549. As to the kind of experiment: 72-h MTT cytotoxicity assay, A549. The assay is classed as cell-based. The settings on record: Homo sapiens, read-out: 72-h MTT IC50 A549, A549 cell line. An outline of the steps:
(§3)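 Standard proliferation test: 72 h compound exposure at 37° C in triplicate, followed by MTT staining and DMSO solubilisation.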
On the technique in general: Tetrazolium assays rely on reduction of a dye to a coloured formazan, in cell work by metabolically active cells.

The subject of a further assay is HT29. As to the kind of experiment: 72-h MTT cytotoxicity assay, HT29. It is filed as cell-based. The settings on record: Homo sapiens, HT-29, read-out: 72-h MTT IC50 HT29, HT29 cell line. In outline: as §3
Another assay concerns Saos-2. As to the kind of experiment: 72-h MTT cytotoxicity assay, Saos-2. The assay is classed as cell-based. The settings on record: Homo sapiens, read-out: 72-h MTT IC50 Saos-2, Saos-2 cell line. An outline of the steps:
as §3

Assay [1] has as its system transformed human cell lines (A549, HT29, Saos-2). As to the kind of experiment: 72-h MTT cytotoxicity assay, average of cell lines. The assay is classed as cell-based. Conditions: read-out: 72-h MTT IC50 Average, average of A549, HT29, Saos-2. An outline of the steps:
as §3

The target in another assay is CDK1/cyclin B (Homo sapiens, UniProt P06493). As to the kind of experiment: Kinase assay, radioactive phosphate incorporation, CDK1/cyclin B. It is filed as biochemical. Conditions: 100 μM ATP, 30° C.; read-out: Kinase inhibition IC50 CDK1/cyclin B. As for the experimental part:
as §2

Drawing on patent publication US20070021419A1, “2-Aminophenyl-4-phenylpyrimidines as kinase inhibitors” (Cyclacel Limited, priority 2003, published 2007), this text covers IC50 for 19 compounds.

Chain of GSK3β (P49841 whole entry, species assumed): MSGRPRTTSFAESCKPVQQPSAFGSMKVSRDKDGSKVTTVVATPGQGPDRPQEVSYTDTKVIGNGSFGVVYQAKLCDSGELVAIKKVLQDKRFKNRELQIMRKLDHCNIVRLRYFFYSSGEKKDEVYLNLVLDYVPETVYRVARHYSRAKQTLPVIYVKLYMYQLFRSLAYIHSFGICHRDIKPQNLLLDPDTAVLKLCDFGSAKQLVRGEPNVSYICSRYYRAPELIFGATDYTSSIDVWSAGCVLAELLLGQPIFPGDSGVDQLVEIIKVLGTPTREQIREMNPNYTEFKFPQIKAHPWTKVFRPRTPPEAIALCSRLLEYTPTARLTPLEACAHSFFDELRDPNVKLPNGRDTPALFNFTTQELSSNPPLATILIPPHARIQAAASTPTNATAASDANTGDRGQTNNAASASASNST
Chain of CDK7/cyclin H (P50613 whole entry, species assumed): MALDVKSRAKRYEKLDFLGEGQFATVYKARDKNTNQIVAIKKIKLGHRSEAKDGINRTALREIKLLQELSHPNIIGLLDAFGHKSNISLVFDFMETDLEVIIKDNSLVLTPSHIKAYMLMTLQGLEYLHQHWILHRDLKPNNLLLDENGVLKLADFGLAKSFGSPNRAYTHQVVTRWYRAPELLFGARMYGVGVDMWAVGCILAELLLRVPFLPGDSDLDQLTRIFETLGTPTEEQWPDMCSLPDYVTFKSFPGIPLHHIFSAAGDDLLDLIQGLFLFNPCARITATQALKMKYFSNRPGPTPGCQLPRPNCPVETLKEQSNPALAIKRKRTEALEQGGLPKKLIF
Chain of CDK7/cyclin H (P51946 whole entry partner, species assumed): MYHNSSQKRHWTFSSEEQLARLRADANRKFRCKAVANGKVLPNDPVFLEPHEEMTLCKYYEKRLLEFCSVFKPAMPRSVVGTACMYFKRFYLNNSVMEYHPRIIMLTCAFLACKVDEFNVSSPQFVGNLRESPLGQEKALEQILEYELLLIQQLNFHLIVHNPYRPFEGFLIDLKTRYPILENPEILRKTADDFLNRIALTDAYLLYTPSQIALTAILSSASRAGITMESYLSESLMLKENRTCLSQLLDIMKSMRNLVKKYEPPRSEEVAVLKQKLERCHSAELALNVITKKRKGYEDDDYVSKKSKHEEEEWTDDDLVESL
Chain of CDK1/cyclin B (P06493 whole entry, species assumed): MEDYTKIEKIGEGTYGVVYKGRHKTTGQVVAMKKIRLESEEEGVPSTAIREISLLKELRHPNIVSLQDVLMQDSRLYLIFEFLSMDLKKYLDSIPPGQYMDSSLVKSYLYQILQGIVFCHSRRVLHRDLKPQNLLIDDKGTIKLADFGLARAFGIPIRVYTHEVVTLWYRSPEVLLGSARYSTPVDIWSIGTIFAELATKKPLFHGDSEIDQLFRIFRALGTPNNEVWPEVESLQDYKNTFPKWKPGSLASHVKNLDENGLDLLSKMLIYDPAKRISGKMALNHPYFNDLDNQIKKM
Chain of CDK1/cyclin B (P14635 whole entry partner, species assumed): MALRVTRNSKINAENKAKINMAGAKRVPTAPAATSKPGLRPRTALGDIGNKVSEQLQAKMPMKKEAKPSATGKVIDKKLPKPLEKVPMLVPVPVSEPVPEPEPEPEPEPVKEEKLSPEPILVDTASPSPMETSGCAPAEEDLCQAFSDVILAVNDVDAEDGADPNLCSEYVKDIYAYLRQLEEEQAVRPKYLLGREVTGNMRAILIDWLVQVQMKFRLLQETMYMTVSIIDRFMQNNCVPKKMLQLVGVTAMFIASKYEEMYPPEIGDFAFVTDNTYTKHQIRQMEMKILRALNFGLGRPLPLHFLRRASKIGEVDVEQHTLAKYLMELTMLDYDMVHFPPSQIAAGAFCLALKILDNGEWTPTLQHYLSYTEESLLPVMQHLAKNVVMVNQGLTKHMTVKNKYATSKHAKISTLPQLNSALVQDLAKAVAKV

As for `CCN(Cc1cccc(-c2ccnc(Nc3cccc([N+](=O)[O-])c3)n2)c1)C(C)C` [Compound 46, (4-{3-[(Ethyl-isopropyl-amino)-methyl]-phenyl}-pyrimidin-2-yl)-(3-nitro-phenyl)-amine], the IC50 amounted to 480 nM on CDK2/cyclin A; 170 nM on CDK2/cyclin E; 1400 nM on CDK4/cyclin D1; 130 nM on CDK7/cyclin H; 2 nM on CDK9/cyclin T1; 100 nM on GSK3β. For the same compound, the IC50 at Aurora-A was determined as 30 nM; with A549, 960 nM; in the assay on HT29, 530 nM; in the assay on Saos-2, 1100 nM; in assay [1] it was 900 ± 300 nM.

On to `O=[N+]([O-])c1cccc(Nc2nccc(-c3cccc(CN4CCCC4CNc4ccccc4)c3)n2)c1` (stereo not drawn) [Compound 86, (3-Nitro-phenyl)-{4-[3-(2-phenylaminomethyl-pyrrolidin-1-ylmethyl)-phenyl]-pyrimidin-2-yl}-amine], for which the IC50 came out at 810 nM at CDK2/cyclin E; 670 nM on CDK7/cyclin H; 130 nM at CDK9/cyclin T1; 160 nM on GSK3β; 2400 nM on Aurora-A; 49300 nM with A549. The results for the IC50 (with HT29; in the assay with Saos-2; in assay [1]) were 8900 nM, 55800 nM and 38000 ± 25400 nM, respectively.

As to `Oc1cccc(Nc2nccc(-c3cccc(C(F)(F)F)c3)n2)c1` [Compound 95, 3-[4-(3-trifluoromethyl-phenyl)-pyrimidin-2-ylamino]-phenol], the IC50 was determined as 90 nM at CDK9/cyclin T1 and 990 nM on Aurora-A.

With `Oc1ccc(Nc2nccc(-c3cccc(C(F)(F)F)c3)n2)cc1` [Compound 96, 4-[4-(3-trifluoromethyl-phenyl)-pyrimidin-2-ylamino]-phenol], the IC50 on CDK9/cyclin T1 turned out to be 80 nM; at Aurora-A, 20 nM.

Consider `O=[N+]([O-])c1cccc(Nc2nccc(-c3cccc(CN4CCCC(CCO)C4)c3)n2)c1` (stereo not drawn) [Compound 100, 2-(1-{3-[2-(3-Nitro-phenylamino)-pyrimidin-4-yl]-benzyl}-piperidin-3-yl)-ethanol], for which the IC50 on CDK1/cyclin B amounted to 1200 nM; on CDK2/cyclin A, 580 nM; on CDK2/cyclin E it was 60 nM; at CDK4/cyclin D1 it was 3400 nM; on CDK7/cyclin H, 70 nM; on CDK9/cyclin T1 it was 2 nM. In addition, the IC50 on GSK3β is 20 nM; in the assay on A549, 560 nM; in the assay on HT29, 640 nM; in the assay with Saos-2, 1300 nM; in [1], 800 ± 400 nM.

As to `CS(=O)(=O)c1cccc(Nc2nccc(-c3cccc(Cn4cncn4)c3)n2)c1` [Compound 104, (3-Methanesulfonyl-phenyl)-[4-(3-[1,2,4]triazol-1-ylmethyl-phenyl)-pyrimidin-2-yl]-amine], the IC50 was determined as 6400 nM on CDK7/cyclin H, 60 nM on CDK9/cyclin T1, 280 nM at GSK3β and 1500 nM on Aurora-A.

As for `CCOc1ccc(-c2ccnc(Nc3cccc(O)c3)n2)cc1` [Compound 109, 3-[4-(4-Ethoxy-phenyl)-pyrimidin-2-ylamino]-phenol], the IC50 at CDK2/cyclin A turned out to be 2000 nM; at CDK9/cyclin T1, 140 nM; on Aurora-A it was 700 nM.

With `COc1ccc(-c2ccnc(Nc3ccc(N4CCOCC4)cc3)n2)cc1` [Compound 111, [4-(4-Methoxy-phenyl)-pyrimidin-2-yl]-(4-morpholin-4-yl-phenyl)-amine], the IC50 at Aurora-A was found to be 520 nM.

As to `O=[N+]([O-])c1cccc(Nc2nccc(-c3cccc(Cl)c3)n2)c1` [Compound 112, [4-(3-Chloro-phenyl)-pyrimidin-2-yl]-(3-nitro-phenyl)-amine], the IC50 at CDK9/cyclin T1 amounted to 70 nM; at GSK3β, 160 nM; at Aurora-A, 2600 nM.

With `Oc1ccc(Nc2nccc(-c3cccc(F)c3)n2)cc1` [Compound 113, 4-[4-(3-Fluoro-phenyl)-pyrimidin-2-ylamino]-phenol], the IC50 at CDK9/cyclin T1 came to 150 nM; on Aurora-A, 140 nM.

Regarding `Oc1cccc(Nc2nccc(-c3cc(F)ccc3F)n2)c1` [Compound 114, 3-[4-(2,5-Difluoro-phenyl)-pyrimidin-2-ylamino]-phenol], the IC50 was determined as 120 nM on CDK9/cyclin T1 and 160 nM at Aurora-A.

On to `OCc1cccc(-c2ccnc(Nc3cccc(O)c3)n2)c1` [Compound 115, 3-[4-(3-Hydroxymethyl-phenyl)-pyrimidin-2-ylamino]-phenol], for which the IC50 amounted to 2000 nM at CDK2/cyclin A; 3100 nM on CDK7/cyclin H; 40 nM on CDK9/cyclin T1; 70 nM on GSK3β; 720 nM at Aurora-A.

As for `OCc1cccc(-c2ccnc(Nc3cccc(F)c3)n2)c1` [Compound 116, {3-[2-(3-Fluoro-phenylamino)-pyrimidin-4-yl]-phenyl}-methanol], the IC50 came out at 50 nM at CDK9/cyclin T1 and 630 nM on Aurora-A.

`COc1cccc(-c2ccnc(Nc3cccc(F)c3)n2)c1` [Compound 118, (3-Fluoro-phenyl)-[4-(3-methoxy-phenyl)-pyrimidin-2-yl]-amine]: the IC50 on CDK9/cyclin T1 turned out to be 20 nM; on Aurora-A, 1800 nM.

Take `Oc1ccc(Nc2nccc(-c3cccc(O)c3)n2)cc1` [Compound 122, 3-[2-(4-Hydroxy-phenylamino)-pyrimidin-4-yl]-phenol]: the values for the IC50 on CDK9/cyclin T1 and on Aurora-A were 190 nM and 6 nM, respectively.

On to `COc1ccc(Nc2nccc(-c3cccc(CO)c3)n2)cn1` [Compound 125, {3-[2-(6-Methoxy-pyridin-3-ylamino)-pyrimidin-4-yl]-phenyl}-methanol], for which the IC50 at CDK7/cyclin H stood at 5900 nM; on CDK9/cyclin T1 it was 120 nM; at GSK3β, 40 nM; on Aurora-A, 960 nM.

Consider `O=[N+]([O-])c1cccc(Nc2nccc(-c3ccc(CCn4cncn4)cc3)n2)c1` [Compound 126, (3-Nitro-phenyl)-{4-[4-(2-[1,2,4]triazol-1-yl-ethyl)-phenyl]-pyrimidin-2-yl}-amine], for which the figures for the IC50 on CDK9/cyclin T1, on GSK3β and on Aurora-A were 90 nM, 10 nM and 340 nM, respectively.

Turning to `O=[N+]([O-])c1cccc(Nc2nccc(-c3ccc(CN4CCCCC4CO)cc3)n2)c1` (stereo not drawn) [Compound 127, (1-{4-[2-(3-Nitro-phenylamino)-pyrimidin-4-yl]-benzyl}-piperidin-2-yl)-methanol], the figures for the IC50 on CDK9/cyclin T1 and at Aurora-A were 900 nM and 1100 nM, respectively.

On to `COc1ccc(Nc2nccc(-c3cccc(N(C)S(C)(=O)=O)c3)n2)cn1` [Compound 132, N-{3-[2-(6-Methoxy-pyridin-3-ylamino)-pyrimidin-4-yl]-phenyl}-N-methyl-methanesulfonamide], for which the IC50 at CDK4/cyclin D1 is 2100 nM; at CDK7/cyclin H, 3900 nM; at CDK9/cyclin T1 it was 60 nM; at GSK3β, 170 nM; at Aurora-A, 390 nM.
